Source: ChEMBL document CHEMBL1153288, “1,3,4-Oxadiazole substituted naphthyridines as HIV-1 integrase inhibitors. Part 2: SAR of the C5 position” (Bioorg Med Chem Lett, 2009)

Columns and labels:
[1] = tested on: Human immunodeficiency virus; experiment: Antiviral activity against G-pseudotyped HIV expressed in 293T cells with pGI3Luci; type: functional, organism-based; conditions: Human immunodeficiency virus 1, HEK-293T
[2] = Inhibition of recombinant HIV integrase strand transfer activity; parameters: species or system Human immunodeficiency virus
[3] = Therapeutic index, CC50 for human 293T cells to EC50 for G-pseudotyped HIV; type: cell-based; conditions: read-out: Ratio CC50/EC50

Row | Compound | EC50 [1] [nM] | IC50 [2] [nM] | selectivity ratio [3]
1 | CCOC(=O)C(=O)Nc1nc(-c2nnc(Cc3ccc(F)cc3)o2)c(O)c2ncccc12 | 1300 | 33 | 10
2 | CN1CCN(c2nc(-c3nnc(Cc4ccc(F)cc4)o3)c(O)c3ncccc23)C1=O | 30 | 15 | > 466
3 | O=C1NCCN1c1nc(-c2nnc(Cc3ccc(F)cc3)o2)c(O)c2ncccc12 | 45 | 12 | 311
4 | Oc1c(-c2nnc(Cc3ccc(F)cc3)o2)nc(-c2ccc[nH]2)c2cccnc12 | 160 | 12 | 31
5 | Oc1c(-c2nnc(Cc3ccc(F)cc3)o2)nc(-n2cccn2)c2cccnc12 | 16 | 4 | 546
6 | O=C(O)c1cccc(-c2nc(-c3nnc(Cc4ccc(F)cc4)o3)c(O)c3ncccc23)c1 | 230 | 2 | > 60
7 | NC(=O)c1ccc(-c2nc(-c3nnc(Cc4ccc(F)cc4)o3)c(O)c3ncccc23)cc1 | 10 | 6 | 1220
8 | CNC(=O)c1ccc(-c2nc(-c3nnc(Cc4ccc(F)cc4)o3)c(O)c3ncccc23)cc1 | 12 | 4 | 780
9 | N#Cc1ccc(-c2nc(-c3nnc(Cc4ccc(F)cc4)o3)c(O)c3ncccc23)cc1 | 26 | 15 | 72
10 | O=C(c1nc(-c2nnc(Cc3ccc(F)cc3)o2)c(O)c2ncccc12)N1CCC(O)CC1 | 220 | 27 | > 65
11 | O=C1CNCCN1c1nc(-c2nnc(Cc3ccc(F)cc3)o2)c(O)c2ncccc12 | 240 | 38 | 58
12 | CN1CCN(c2nc(-c3nnc(Cc4ccc(F)cc4)o3)c(O)c3ncccc23)S1(=O)=O | 63 | 4 | 137
13 | CNc1nc(-c2nnc(Cc3ccc(F)cc3)o2)c(O)c2ncccc12 | 400 | 74 | 30
14 | O=C(O)c1ccc(-c2nc(-c3nnc(Cc4ccc(F)cc4)o3)c(O)c3ncccc23)cc1 | 58 | 2 | 241
15 | O=S1(=O)CCCCN1c1nc(-c2nnc(Cc3ccc(F)cc3)o2)c(O)c2ncccc12 | 13 | 2 | 198
16 | Oc1c(-c2nnc(Cc3ccc(F)cc3)o2)nc(-c2ccoc2)c2cccnc12 | 100 | 23 | 116
17 | Cc1ccccc1S(=O)(=O)Nc1nc(-c2nnc(Cc3ccc(F)cc3)o2)c(O)c2ncccc12 | 190 | 42 | 74
18 | O=C1CCCCN1c1nc(-c2nnc(Cc3ccc(F)cc3)o2)c(O)c2ncccc12 | 87 | 88 | > 160
19 | CS(=O)(=O)Nc1ccc(-c2nc(-c3nnc(Cc4ccc(F)cc4)o3)c(O)c3ncccc23)cc1 | 9 | 3 | 915
20 | CS(=O)(=O)c1ccccc1-c1nc(-c2nnc(Cc3ccc(F)cc3)o2)c(O)c2ncccc12 | 23 | 11 | 243
21 | CS(=O)(=O)c1ccc(-c2nc(-c3nnc(Cc4ccc(F)cc4)o3)c(O)c3ncccc23)cc1 | 8 | 9 | 301

Row | Compound | EC50 [1] [nM] | IC50 [2] [nM] | selectivity ratio [3]
22 | CS(=O)(=O)Nc1nc(-c2nnc(Cc3ccc(F)cc3)o2)c(O)c2ncccc12 | 110 | 19 | 131
23 | CC(=O)Nc1nc(-c2nnc(Cc3ccc(F)cc3)o2)c(O)c2ncccc12 | 110 | 72 | 127
24 | CN1CCN(C(=O)c2nc(-c3nnc(Cc4ccc(F)cc4)o3)c(O)c3ncccc23)CC1 | 97 | 44 | > 144
25 | CN(C)C(=O)CN1CCN(c2nc(-c3nnc(Cc4ccc(F)cc4)o3)c(O)c3ncccc23)CC1 | 43 | 12 | 205
26 | Oc1c(-c2nnc(Cc3ccc(F)cc3)o2)nc(-c2ccccc2)c2cccnc12 | 36 | 29 | 49
27 | Oc1c(-c2nnc(Cc3ccc(F)cc3)o2)nc(-c2ccccn2)c2cccnc12 | 56 | 30 | 40
28 | O=C1CCCCCN1c1nc(-c2nnc(Cc3ccc(F)cc3)o2)c(O)c2ncccc12 | 34 | 25 | > 411
29 | Nc1cccc(-c2nc(-c3nnc(Cc4ccc(F)cc4)o3)c(O)c3ncccc23)c1 | 15 | 15 | 546
30 | CNS(=O)(=O)c1ccccc1-c1nc(-c2nnc(Cc3ccc(F)cc3)o2)c(O)c2ncccc12 | 22 | 4 | 173
31 | O=C1OCCN1c1nc(-c2nnc(Cc3ccc(F)cc3)o2)c(O)c2ncccc12 | 21 | 13 | > 666
32 | O=C1NCCCN1c1nc(-c2nnc(Cc3ccc(F)cc3)o2)c(O)c2ncccc12 | 56 | 11 | > 250
33 | CNC(=O)c1nc(-c2nnc(Cc3ccc(F)cc3)o2)c(O)c2ncccc12 | 150 | 120 | 43
34 | Oc1c(-c2nnc(Cc3ccc(F)cc3)o2)nc(-c2ccncc2)c2cccnc12 | 35 | 8 | 200
35 | CS(=O)(=O)Nc1cccc(-c2nc(-c3nnc(Cc4ccc(F)cc4)o3)c(O)c3ncccc23)c1 | 14 | 8 | 435
36 | CC(C)NS(=O)(=O)c1ccccc1-c1nc(-c2nnc(Cc3ccc(F)cc3)o2)c(O)c2ncccc12 | 8 | 12 | 295
37 | O=S1(=O)CCCN1c1nc(-c2nnc(Cc3ccc(F)cc3)o2)c(O)c2ncccc12 | 110 | 8 | > 129
38 | CS(=O)(=O)N1CCN(c2nc(-c3nnc(Cc4ccc(F)cc4)o3)c(O)c3ncccc23)CC1 | 38 | 19 | 162
39 | CC(C)NS(=O)(=O)c1ccc(-c2nc(-c3nnc(Cc4ccc(F)cc4)o3)c(O)c3ncccc23)cc1 | 15 | 4 | 118
40 | CC(=O)Nc1ccc(-c2nc(-c3nnc(Cc4ccc(F)cc4)o3)c(O)c3ncccc23)cc1 | 6 | 4 | 591
41 | Oc1c(-c2nnc(Cc3ccc(F)cc3)o2)nc(-c2cnccn2)c2cccnc12 | 170 | 20 | 24
42 | CN(C)C(=O)c1ccc(-c2nc(-c3nnc(Cc4ccc(F)cc4)o3)c(O)c3ncccc23)cc1 | 12 | 18 | 668

Row | Compound | EC50 [1] [nM] | IC50 [2] [nM] | selectivity ratio [3]
43 | Cc1ccn(-c2nc(-c3nnc(Cc4ccc(F)cc4)o3)c(O)c3ncccc23)n1 | 380 | 21 | 23
44 | NC(=O)c1nc(-c2nnc(Cc3ccc(F)cc3)o2)c(O)c2ncccc12 | 160 | 100 | 75
45 | CN(C)S(=O)(=O)c1ccc(-c2nc(-c3nnc(Cc4ccc(F)cc4)o3)c(O)c3ncccc23)cc1 | 9 | 18 | 218
46 | COCCNC(=O)c1nc(-c2nnc(Cc3ccc(F)cc3)o2)c(O)c2ncccc12 |  | 190 | 139
47 | O=C(NCCCO)c1nc(-c2nnc(Cc3ccc(F)cc3)o2)c(O)c2ncccc12 | 470 | 71 | > 30
48 | CN(C)C(=O)C(=O)N(C)c1nc(-c2nnc(Cc3ccc(F)cc3)o2)c(O)c2ncccc12 | 310 | 85 | > 40
49 | CC(=O)Nc1cccc(-c2nc(-c3nnc(Cc4ccc(F)cc4)o3)c(O)c3ncccc23)c1 | 10 | 80 | 1400
50 | O=C1CN(c2nc(-c3nnc(Cc4ccc(F)cc4)o3)c(O)c3ncccc23)CCN1 | 17 | 7 | 844
51 | O=C1N(CCO)CCN1c1nc(-c2nnc(Cc3ccc(F)cc3)o2)c(O)c2ncccc12 | 94 | 13 | 148
52 | CC(=O)N(C)c1nc(-c2nnc(Cc3ccc(F)cc3)o2)c(O)c2ncccc12 | 180 | 28 | 428
53 | CN(C)C(=O)N1CCN(c2nc(-c3nnc(Cc4ccc(F)cc4)o3)c(O)c3ncccc23)C(=O)C1 | 87 | 23 | 120
54 | O=C1CN(C(=O)c2nc(-c3nnc(Cc4ccc(F)cc4)o3)c(O)c3ncccc23)CCN1 | > 14000 | 74 | 
55 | CN1CCCN(c2nc(-c3nnc(Cc4ccc(F)cc4)o3)c(O)c3ncccc23)S1(=O)=O | 31 | 6 | 294
56 | Oc1c(-c2nnc(Cc3ccc(F)cc3)o2)nc(-c2cccnc2)c2cccnc12 | 36 | 11 | 194
57 | CN(C)S(=O)(=O)Nc1nc(-c2nnc(Cc3ccc(F)cc3)o2)c(O)c2ncccc12 | 84 | 15 | 127
58 | CN(C)S(=O)(=O)c1ccccc1-c1nc(-c2nnc(Cc3ccc(F)cc3)o2)c(O)c2ncccc12 | 29 | 4 | 67
59 | N#Cc1nc(-c2nnc(Cc3ccc(F)cc3)o2)c(O)c2ncccc12 | > 35000 | 240 | 
60 | CC(C)NC(=O)c1cccc(-c2nc(-c3nnc(Cc4ccc(F)cc4)o3)c(O)c3ncccc23)c1 | 28 | 10 | 182
61 | CS(=O)(=O)c1cccc(-c2nc(-c3nnc(Cc4ccc(F)cc4)o3)c(O)c3ncccc23)c1 | 13 | 6 | 234
62 | O=C1CCCN1c1nc(-c2nnc(Cc3ccc(F)cc3)o2)c(O)c2ncccc12 | 89 | 19 | > 156
63 | CC(C)NC(=O)c1ccc(-c2nc(-c3nnc(Cc4ccc(F)cc4)o3)c(O)c3ncccc23)cc1 | 13 | 4 | 95
